Laboratory results taken from patent publication US20150094264A1, “USE OF OBESTATIN FOR MUSCLE REGENERATION” (UNIVERSIDADE DE SANTIAGO DE COMPOSTELA, priority 2012, published 2015).

Experiments:
[1] = test system: L6E9 myoblasts; experiment: Cicatrization capacity (migration/invasion) in L6E9 myoblasts; assay type: cell-based, rat; settings: obestatin 5 nM
Method: FIG. 6. Evaluation of the cicatrization capacity (migration/invasion) of obestatin in L6E9 myoblasts. A: the L6E9 myoblasts grew to 100% of confluence in GM and later the damage was induced with a sterile pipette. The cells were maintained in GM or GM-obestatin (5 nM) during 8 and 24 hours after the induction of cell damage (40× magnification). B: quantification of the % of cicatrization (mean±standard error; *, p<0.05).
The L6E9 cells were cultured until reaching a confluence of 100% in GM. Having reached said confluence, the damage was produced by the use of a sterile pipette point which made it possible to perform two linear and perpendicular channels. After the damage, the cells were washed and cultured with GM or GM+obestatin (5 nM). The progress of the migration was immediately photographed after the damage and at 8 and 24 hours, close to the crossing point. The “invaded” area was calculated by tracing the “cicatrization” edge and using ImageJ64 software. The percentage of cicatrization was calculated based on the following equation:% cicatrization=[(area 0 h−area xh)/area 0 h]×100.

[2] = test system: L6E9 myotubes; experiment: Activation of regulatory enzymes by obestatin in L6E9 myotubes, immunoblot; assay type: cell-based, rat; settings: obestatin 5 nM
Method: FIG. 1. Activation of regulatory enzymes of mitogenesis and myogenesis by obestatin in L6E9 myoblasts and myotubes. Effect of obestatin on activity of regulatory enzymes of the mitogenic capacity (ERK 1/2), metabolic capacity (Akt and AMPK) and myogenic capacity (Akt and p38). Based on a dose-response study, the saturating dose for the maximum enzymatic activation is established for a concentration of 5 nM. […] Inactivation of AMPK is described in both cell models. The activation profile discovers bimodal characteristics for the action of obestatin: 1.—mitogenic activation in myoblasts; and, 2.—myogenic activation. The immunoblots are representative of 6 independent assays. […]
The tissue or cell samples were directly lysed in RIPA buffer [Tris-HCl (pH 7.2), 50 mM; NaCl, 150 mM; EDTA, 1 mM; NP-40, 1% (v/v); Sodium deoxycholate, 0.25% (w/v); protease inhibitors (Sigma); phosphatise inhibitors (Sigma)]. The lysates were clarified by centrifugation (14,000×g during 15 min at 4° C.) and the protein concentration was quantified using QuantiPro™ BCA assay kit (Sigma). […] The immunoreactive bands were detected by chemiluminescence (Pierce ECL Western Blotting Substrate; Thermo Scientific, Ill., USA). […]

[3] = test system: damaged tibialis anterior of mouse; experiment: Local administration in damaged tibialis anterior of mouse: myogenic markers, immunoblot; assay type: in vivo, Swiss mice; settings: 300 nmol/kg weight local, 24 h intervals
Method: FIG. 8. Effect of the exogenous administration of obestatin in the damaged tibialis anterior of mouse (animal model) on the myogenic markers PAX-7 (A), MyoD (B), myogenin (C) and eMHC (D). Effect of the local exogenous administration of obestatin (300 nmol/kg/24 h) on early and later markers of myogenesis in damaged skeletal muscle tissue (tibialis anterior) in mice. The protein levels are expressed as % of the control obtained from the group of animals with administration of PBS (n=10 per group; mean±standard error; *, #, p<0.005).
The tissue or cell samples were directly lysed in RIPA buffer [Tris-HCl (pH 7.2), 50 mM; NaCl, 150 mM; EDTA, 1 mM; NP-40, 1% (v/v); Sodium deoxycholate, 0.25% (w/v); protease inhibitors (Sigma); phosphatise inhibitors (Sigma)]. The lysates were clarified by centrifugation (14,000×g during 15 min at 4° C.) and the protein concentration was quantified using QuantiPro™ BCA assay kit (Sigma). For immunoblot, equal amounts of protein were loaded which were fractionated in SOS-PAGE gels and transferred to nitrocellulose membranes. The immunoreactive bands were detected by chemiluminescence (Pierce ECL Western Blotting Substrate; Thermo Scientific, Ill., USA).
(§1) The mice (30 g; n=50) were maintained in 12 h light-darkness cycled with free access to standard diet and water. To induce the muscle damage, the tibialis anterior muscle (TA) was extracted under anaesthesia and subjected to three cycles of damage due to cold contact applying along the length of the muscle a metal bar cooled in liquid nitrogen. The damaged muscles were treated locally with obestatin injection (300 nmol/kg weight) or the corresponding vehicle (PBS; control) during the times indicated in 24 h intervals. The animals were assigned to one of the five experimental groups (n=10/group): 1) control group (saline); 2) obestatin group 48 h (obestatin 300 nmol/kg weight/24 h); 3) obestatin group 96 h (obestatin 300 nmol/kg weight/24 h); 4) obestatin group 168 h (obestatin 300 nmol/kg weight/24 h); and, obestatin group 240 h (obestatin 300 nmol/kg weight/24 h). After the indicated times, the mice were sacrificed by cervical dislocation under anaesthetic treatment and the tissues were extracted for immunoblot and immunohistochemical analyses.
The estimate of the therapeutic potential of obestatin as muscle regenerator agent was assessed in Swiss mice wherein muscle damage was induced in the tibialis anterior and obestatin (300 nmol/kg weight) or the corresponding vehicle (PBS) was later locally administered. The muscles were extracted and analysed by immunoblot 48, 96, 168 and 240 h after the treatment (n=5 per study time).

[4] = test system: L6E9 myoblasts; experiment: Mitogenic effect (number of cells) in L6E9 myoblasts in growth medium; assay type: cell-based, rat
Method: FIG. 2. Mitogenic effect of obestatin in L6E9 myoblasts. Mitogenic effect of different doses of obestatin (0.01-100 nM) in L6E9 myoblasts after 48 hours of stimulation in the presence of growth medium [GM: DMEN+10% FBS]. Co: initial number of cells. Control: number of cells after 48 hours in GM. GM+obestatin: number of cells after 48 hours of stimulation with obestatin in GM. The data are expressed as mean±standard error of 4 independent experiments (*, p<0.05).
The studies were performed based on the use of L6E9 rat myoblasts which were maintained in growth medium (GM) formed by DMEM (Dulbecco's Modified Eagle Medium) supplemented with 10% fetal bovine serum (FBS), 100 U/mL penicillin, and 100 U/mL streptomycin. For the differentiation, the cells were cultured at 80-100% of confluence in GM and it was replaced for differentiation medium (DM) formed by DMEM supplemented with 2% FBS, 100 U/mL penicillin, and 100 U/mL streptomycin during 6 days.
Dose-dependent studies performed on myoblasts with different obestatin concentrations (0.01-100 nM) in GM (proliferative conditions) show a maximum increase in the number of cells at 48 hours post-stimulation at a concentration of 5.0 nM obestatin (˜2.2-increased in relation to the control; FIG. 2).

[5] = test system: damaged tibialis anterior of mouse; experiment: Creatine kinase levels in serum of mice with damaged tibialis anterior; assay type: in vivo, Swiss mice; settings: 300 nmol/kg weight local; 96 h
Method: FIG. 12. Analysis of the creatine kinase levels in serum of mice wherein damage was induced in the tibialis anterior muscle and they were treated locally with obestatin or vehicle (PBS) during 96 h. The creatine kinase levels are expressed as IU/L (International units/litre for the three study groups: control without damage, damage control (PBS) and treatment with obestatin (n=10 per group; mean±standard error; *, #, p<0.005).
as §1, with “After the indicated times, the mice were sacrificed by cervical dislocation under anaesthetic treatment and the tissues were extracted for immunoblot and immunohistochemical analyses.” left out

Substance: obestatin
- increase of migration index (cicatrization) in relation to control cells ([1]; 8 hours after inducing cell damage): 53%
- increase of migration index (cicatrization) in relation to control cells ([1]; 24 hours after inducing cell damage): 21%
- activation dynamics of Akt, p38, ERK1/2 and AMPKa compared with myoblasts [2]: similar
- expression times of each of the factors analysed (Pax-7, MyoD, myogenin, eMHC) [3]: acceleration
- MyoD levels in treated muscles in relation to control muscles ([3]; 48, 96, 168 and 240 h): significantly higher
- Pax-7 levels in treated muscles in relation to control muscles ([3]; 48, 96, 168 and 240 h): significantly higher
- eMHC levels in treated muscles in relation to control muscles ([3]; 48, 96, 168 and 240 h): significantly higher
- myogenin levels in treated muscles in relation to control muscles ([3]; 48, 96, 168 and 240 h): significantly higher
- maximum increase in the number of cells in relation to the control ([4]; 5.0 nM obestatin, 48 hours post-stimulation, GM (DMEM+10% FBS)): ~2.2
- obestatin concentration of maximum increase in the number of cells ([4]; range 0.01-100 nM, 48 hours, GM): 5.0 nM
- creatine kinase serum levels in relation to muscle damage controls (PBS) [5]: significant reduction
